Data taken from patent US8722015B2, “Compositions and methods for treatment of angiogenesis-associated ocular disorders” (The Schepens Eye Research Institute, Inc., priority 2010, dated 2014).

Tested on: pathological retinas
Assay: Staining of pathological and healthy retinas with SH peptide, confocal images
Type: binding, rat
Protocol: FIG. 7 is a series of confocal images of pathological (row A) and healthy (row B) retinas stained with either SH peptide alone (left hand column), the SH peptide and IB4, which decorates endothelial cells and activated macrophages/microglia (middle column), or SH peptide, IB4 and DAPI (right hand column). Yellow indicates either endothelial cells or activated macrophages/microglia that are also stained with the SH peptide.
The following series of experiments are performed to assess if the unique peptide insert of the SH phage is sufficient for recognition of pathological retinal vessels. A peptide corresponding to the unique insert and the 4 flanking residues on the N and 2 residues on the C termini (GGACSTEALRHCG; SEQ ID NO: 3) is synthesized. To facilitate labeling of the peptide biotin is added on the N-terminus, thereby allowing for detection of the peptide with the fluorescently labeled avidin. The labeled SH peptide, along with the scrambled version is labeled and used to stain flat mounts of RA (experienced room air instead of the OIR protocol) or OIR retinas as was done in FIG. 4. The staining protocol is optimized to identify the suitable concentration of peptide, incubation and wash conditions. If the peptides used in these experiments include all of the necessary sequence information to selectively recognize the pathological retinal vessels, then the peptides work comparably to the phage, as shown in FIG. 4.
Peptides corresponding to those expressed on the surface of the SH phage, e.g., those with the amino acid sequence STEALRH (SEQ ID NO: 2), recognized pathological retinas much more effectively than healthy retinas.

STEALRH (Protein from peptide library) [SH peptide]
comparison with the entire SH phage (strength of the signal, absence of background) (FIG. 7): superior to the entire SH phage
staining of pathological versus healthy retinas (OIR versus healthy retinas, FIG. 7): stained pathological retinas much more robustly than healthy retinas
recognition of areas without overt pathology (pathological retina, in addition to tufts): recognized areas without overt pathology
